Experimental data published in the supplement of paper PMC11061612.

Experiments:
Assay in all cases: Bliss excess, mean over the matrix (fraction); higher = more synergy
[1] = test system: HuCCT1 (Biliary Tract Carcinoma)
In short: (§1)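 Cell lines in DMEM/F12 or RPMI with 10% FBS were plated in 1536-well plates, held 24 hours at 37°C, 5% CO2, then given two-drug dose matrices for 72 hours (DMSO typically 0.2%). Viability was read by CellTiter-Glo 2.0 luminescence and scaled as inhibition from 0 (vehicle wells) to 1 (blank wells). Combination Emax is the second-highest inhibition in the matrix; Bliss excess is observed combination effect minus expected EA + EB − EA·EB, EA and EB being single-agent effects.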

[2] = test system: CAL-72 (Osteosarcoma)
In short: as §1

[3] = test system: BE-13 (T-Lymphoblastic Leukemia)
In short: as §1

[4] = test system: EW-11 (Ewing's Sarcoma)
In short: as §1

[5] = test system: GAMG (Glioblastoma)
In short: as §1

[6] = test system: NCI-H524 (Small Cell Lung Carcinoma)
In short: as §1

[7] = test system: SNU-449 (Hepatocellular Carcinoma)
In short: as §1

[8] = test system: HH (T-Cell Non-Hodgkin's Lymphoma)
In short: as §1

[9] = test system: LS-123 (Colorectal Carcinoma)
In short: as §1

[10] = test system: MPP-89 (Mesothelioma)
In short: as §1

[11] = test system: LCLC-97TM1 (Non-Small Cell Lung Carcinoma)
In short: as §1

[12] = test system: L-428 (Hodgkin's Lymphoma)
In short: as §1

[13] = test system: NCI-H2052 (Mesothelioma)
In short: as §1

[14] = test system: BPH-1 (Non-Cancerous)
In short: as §1

[15] = test system: BE2-M17 (Neuroblastoma)
In short: as §1

[16] = test system: NCI-H2722 (Mesothelioma)
In short: as §1

[17] = test system: HuH-7 (Hepatocellular Carcinoma)
In short: as §1

[18] = test system: ALL-PO (B-Lymphoblastic Leukemia)
In short: as §1

[19] = test system: HeLa (Cervical Carcinoma)
In short: as §1

[20] = test system: OV-56 (Ovarian Carcinoma)
In short: as §1

SMILES	Bliss excess [1]	Bliss excess [2]	Bliss excess [3]	Bliss excess [4]	Bliss excess [5]	Bliss excess [6]	Bliss excess [7]	Bliss excess [8]	Bliss excess [9]	Bliss excess [10]	Bliss excess [11]	Bliss excess [12]	Bliss excess [13]	Bliss excess [14]	Bliss excess [15]	Bliss excess [16]	Bliss excess [17]	Bliss excess [18]	Bliss excess [19]	Bliss excess [20]
C=CCn1c(=O)c2cnc(Nc3ccc(N4CCN(C)CC4)cc3)nc2n1-c1cccc(C(C)(C)O)n1 [AZD1775] + CCc1c2c(nc3ccc(O)cc13)-c1cc3c(c(=O)n1C2)COC(=O)[C@]3(O)CC [SN-38] (first compound max 1 µM, partner max 0.3 µM)	-0.0281	0.017	-0.0186	-0.113	0.001	-0.0355	-0.0298	-0.0696	-0.0581	0.0163										
C=CCn1c(=O)c2cnc(Nc3ccc(N4CCN(C)CC4)cc3)nc2n1-c1cccc(C(C)(C)O)n1 [AZD1775] + Nc1ccn([C@@H]2O[C@H](CO)[C@@H](O)C2(F)F)c(=O)n1 [Gemcitabine] (first compound max 1 µM, partner max 0.3 µM)	0.0536	-0.0796	0.0778	-0.0613	0.0684	0.0443	-0.0186	-0.0316	-0.0068	0.0505										
CN(CCO)CC[C@H](CSc1ccccc1)Nc1ccc(S(=O)(=O)NC(=O)c2ccc(N3CCC([C@@H](O)c4ccccc4-c4ccc(Cl)cc4)CC3)cc2)cc1S(=O)(=O)C(F)(F)F [AZD4320] + CS(=O)(=O)CCNCc1ccc(-c2ccc3ncnc(Nc4ccc(OCc5cccc(F)c5)c(Cl)c4)c3c2)o1 [Lapatinib] (first compound max 1 µM, 7x7, partner max 10 µM)	-0.0052	-0.0174	0.0292	0.0342	0.1	0.0798	0.021	0.0112		0.0479										
CN(CCO)CC[C@H](CSc1ccccc1)Nc1ccc(S(=O)(=O)NC(=O)c2ccc(N3CCC([C@@H](O)c4ccccc4-c4ccc(Cl)cc4)CC3)cc2)cc1S(=O)(=O)C(F)(F)F [AZD4320] + C[C@@H](Nc1cc(F)cc(F)c1)c1cc(C(=O)N(C)C)cc2c(=O)cc(N3CCOCC3)oc12 [AZD8186] (first compound max 1 µM, 7x7, partner max 3 µM)	0.0583		-0.0065	-0.0358	0.0337	0.0121	0.0093	0.012		0.0212	-0.014	0.0393	-0.0278	-0.0541	0.0115	-0.0422	0.0262	0.0509	0.0156	-0.0031
Cc1c2c(nn1C)CSCc1cc(n(C)n1)CSc1cc(c3ccccc3c1)OCCCc1c(C(=O)O)n(C)c3c-2c(Cl)ccc13 [AZD5991] + CC1(C)CCC(CN2CCN(c3ccc(C(=O)NS(=O)(=O)c4ccc(NCC5CCOCC5)c([N+](=O)[O-])c4)c(Oc4cnc5[nH]ccc5c4)c3)CC2)=C(c2ccc(Cl)cc2)C1 [Venetoclax] (first compound max 1 µM, 7x7, partner max 1 µM)	-0.0557	0.0676	0.106	0.144	-0.0047	0.0725	-0.0286	0.0016	-0.026	-0.0065	-0.023	-0.0151	0.0269	-0.0148	0.0276	-0.0733	-0.0272		0.0343	0.0077
Cc1c2c(nn1C)CSCc1cc(n(C)n1)CSc1cc(c3ccccc3c1)OCCCc1c(C(=O)O)n(C)c3c-2c(Cl)ccc13 [AZD5991] + CC(=O)O[C@H]1C(=O)[C@@]2(C)[C@H]([C@H](OC(=O)c3ccccc3)[C@]3(O)C[C@H](OC(=O)[C@H](O)[C@@H](NC(=O)c4ccccc4)c4ccccc4)C(C)=C1C3(C)C)[C@]1(OC(C)=O)CO[C@@H]1C[C@@H]2O [Paclitaxel] (first compound max 1 µM, 7x7, partner max 3 µM)	-0.0164	-0.0853	-0.0476	0.0039	0.039	-0.0264	-0.0404	0.0737	-0.0691	-0.0347										
Cc1c2c(nn1C)CSCc1cc(n(C)n1)CSc1cc(c3ccccc3c1)OCCCc1c(C(=O)O)n(C)c3c-2c(Cl)ccc13 [AZD5991] + CS(=O)(=O)CCNCc1ccc(-c2ccc3ncnc(Nc4ccc(OCc5cccc(F)c5)c(Cl)c4)c3c2)o1 [Lapatinib] (first compound max 1 µM, 7x7, partner max 10 µM)	0.0065	0.0088	0.0363	-0.0014	0.0088	-0.0908	0.0212	-0.0635	-0.0106	-0.0088										
C[C@@H](Nc1cc(F)cc(F)c1)c1cc(C(=O)N(C)C)cc2c(=O)cc(N3CCOCC3)oc12 [AZD8186] + C1CN(CCC1(C(=O)N[C@@H](CCO)C2=CC=C(C=C2)Cl)N)C3=NC=NC4=C3C=CN4 [AZD5363] (first compound max 10 µM, 7x7, partner max 10 µM)	-0.0171	-0.0293	-0.028	-0.0265	-0.0849	-0.0342	-0.0206	-0.125	-0.0327	-0.0635										
C[C@@H](Nc1cc(F)cc(F)c1)c1cc(C(=O)N(C)C)cc2c(=O)cc(N3CCOCC3)oc12 [AZD8186] + CC(=O)c1c(C)c2cnc(Nc3ccc(N4CCNCC4)cn3)nc2n(C2CCCC2)c1=O [Palbociclib] (first compound max 10 µM, 7x7, partner max 10 µM)	0.0428	0.0075	-0.0165	-0.0053	-0.0098	-0.0531	0.0373	0.0853	0.0701	-0.0317										
C[C@@H](Oc1cc(-c2cnn(C3CCNCC3)c2)cnc1N)c1c(Cl)ccc(F)c1Cl [Crizotinib] + CC1=C(C(=CC=C1)Cl)NC(=O)C2=CN=C(S2)NC3=CC(=NC(=N3)C)N4CCN(CC4)CCO [Dasatinib] (first compound max 10 µM, 7x7, partner max 2 µM)	-0.0274	0.0078	0.0321	-0.0571	0.0164	-0.0264	0.0569	-0.0138	0.0166	0.0389										
CS(=O)(=O)CCNCc1ccc(-c2ccc3ncnc(Nc4ccc(OCc5cccc(F)c5)c(Cl)c4)c3c2)o1 [Lapatinib] + Cn1cnc2c(F)c(Nc3ccc(Br)cc3Cl)c(C(=O)NOCCO)cc21 [Selumetinib] (first compound max 10 µM, 7x7, partner max 10 µM)	0.0208	-0.0254	-0.0253	-0.0259	-0.06	-0.0534	-0.0601	-0.0496	0.0002	-0.0065										
CS(=O)(=O)CCNCc1ccc(-c2ccc3ncnc(Nc4ccc(OCc5cccc(F)c5)c(Cl)c4)c3c2)o1 [Lapatinib] + NC1(c2ccc(-c3nc4ccn5c(=O)[nH]nc5c4cc3-c3ccccc3)cc2)CCC1 [MK-2206] (first compound max 10 µM, 7x7, partner max 10 µM)	-0.018	0.0288	-0.0842	-0.0003	0.016	0.0223	0.0446	-0.0002	0.0101	-0.0391			-0.0143							
O=C(c1cc(Cc2n[nH]c(=O)c3ccccc23)ccc1F)N1CCN(C(=O)C2CC2)CC1 [Olaparib] + CC1(C)CCC(CN2CCN(c3ccc(C(=O)NS(=O)(=O)c4ccc(NCC5CCOCC5)c([N+](=O)[O-])c4)c(Oc4cnc5[nH]ccc5c4)c3)CC2)=C(c2ccc(Cl)cc2)C1 [Venetoclax] (first compound max 10 µM, 7x7, partner max 1 µM)	-0.0478	-0.0215	-0.0238	0.0371	-0.0303	-0.0173	-0.0418	-0.0246	-0.0413	-0.0605										
O=C(c1cc(Cc2n[nH]c(=O)c3ccccc23)ccc1F)N1CCN(C(=O)C2CC2)CC1 [Olaparib] + COc1nnc2ccc(N3CCC(c4ccc(OCCN5CCN(C)C(=O)[C@H]5C)cc4)CC3)nn12 [AZD5153] (first compound max 10 µM, 7x7, partner max 1 µM)	-0.0637	-0.0056	-0.0681	-0.0063	-0.002	-0.0532	-0.0587	-0.0066	-0.0084	-0.0489										
CCc1c2c(nc3ccc(O)cc13)-c1cc3c(c(=O)n1C2)COC(=O)[C@]3(O)CC [SN-38] + O=C(c1cc(Cc2n[nH]c(=O)c3ccccc23)ccc1F)N1CCN(C(=O)C2CC2)CC1 [Olaparib] (first compound max 0.3 µM, 7x7, partner max 10 µM)	0.0046	0.113	0.0503	-0.0291	0.109	0.0488	-0.0319	-0.0275	0.0301	0.0504		0.0367		0.0501	0.0082	0.0188		0.0576	0.0232	
Cc1nc(-c2cn3c(n2)-c2ccc(-c4cnn(C(C)(C)C(N)=O)c4)cc2OCC3)n(C(C)C)n1 [Taselisib] + O=C(Nc1ccc2[nH]nc(-c3ccncc3)c2c1)[C@@H]1CCN(CC(=O)N2CCN(c3ccc(-c4ncccn4)cc3)CC2)C1 [SCH772984] (first compound max 10 µM, 7x7, partner max 5 µM)	0.072	-0.0562	-0.0347	-0.002	0.0241	0.0464	0.0076	0.0858	0.0028	0.0373										
CC1(C)CCC(CN2CCN(c3ccc(C(=O)NS(=O)(=O)c4ccc(NCC5CCOCC5)c([N+](=O)[O-])c4)c(Oc4cnc5[nH]ccc5c4)c3)CC2)=C(c2ccc(Cl)cc2)C1 [Venetoclax] + CS(=O)(=O)CCNCc1ccc(-c2ccc3ncnc(Nc4ccc(OCc5cccc(F)c5)c(Cl)c4)c3c2)o1 [Lapatinib] (first compound max 1 µM, 7x7, partner max 10 µM)	-0.0803	-0.0527	-0.0101	0.0195	-0.0231	-0.0393	-0.0572	-0.0178	-0.0595	-0.0532										
